Our source for the IC50 values is patent US20250136612A1, “4',5'-DIHYDROSPIRO[PIPERIDINE-4,7'-THIENO[2,3-C]PYRAN] DERIVATIVES AS INHIBITORS OF APOL1 AND METHODS OF USING SAME” (VERTEX PHARMACEUTICALS INCORPORATED, priority 2022, published 2025).

This assay deals with T1, APOL1 (Homo sapiens, UniProt O14791).
T1 sequence (O14791 1-398 S342G/I384M): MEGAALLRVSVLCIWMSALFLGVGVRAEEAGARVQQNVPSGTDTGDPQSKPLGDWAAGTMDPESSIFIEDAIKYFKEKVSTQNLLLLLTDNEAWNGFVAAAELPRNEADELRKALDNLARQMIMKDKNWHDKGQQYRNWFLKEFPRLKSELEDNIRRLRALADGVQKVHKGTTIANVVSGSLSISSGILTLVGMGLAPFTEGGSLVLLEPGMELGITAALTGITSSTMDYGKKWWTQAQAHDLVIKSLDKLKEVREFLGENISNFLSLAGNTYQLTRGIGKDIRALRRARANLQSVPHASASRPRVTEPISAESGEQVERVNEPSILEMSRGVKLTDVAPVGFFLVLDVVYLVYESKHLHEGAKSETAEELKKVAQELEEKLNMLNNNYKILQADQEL
The assay can be described thus: MultiTox-Fluor Multiplex Cytotoxicity Assay in tet-inducible APOL1 T-REx-HEK293 cells. The note with it: 50 ng/mL tet, 24 hours, ratio of dead to live cells, read-out: IP50 (i.e., IC50 for cell proliferation). In kind it is cell-based. On the procedure: The MultiTox-Fluor Multiplex Cytotoxicity Assay is a single-reagent-addition, homogeneous, fluorescence assay that measures the number of live and dead cells simultaneously in culture wells. The assay measures cell viability and cytotoxicity by detecting two distinct protease activities. The live-cell protease activity is restricted to intact viable cells and is measured using a fluorogenic, cell-permeant peptide glycyl-phenylalanylamino fluorocoumarin (GF-AFC) substrate. The substrate enters intact cells, where it is cleaved to generate a fluorescent signal proportional to the number of living cells. […] A second, cell-impermeant, fluorogenic peptide substrate (bis-AAF-R110 Substrate) is used to measure dead-cell protease that has been released from cells that have lost membrane integrity. A ratio of dead to live cells is used to normalize data.
Briefly, the tet-inducible transgenic APOL1 T-REx-HEK293 cell lines were incubated with 50 ng/mL tet to induce APOL1 in the presence of 3-(2-(4-fluorophenyl)-1H-indol-3-yl)-N-((3S,4R)-4-hydroxy-2-oxopyrrolidin-3-yl)propenamide at 10.03, 3.24, 1.13, 0.356, 0.129, 0.042, 0.129, 0.0045, 0.0015, 0.0005 μM in duplicate for 24 hours in a humidified 37° C. incubator. The MultiTox reagent was added to each well and placed back in the incubator for an additional 30 minutes. The plate was read on the EnVision plate reader. A ratio of dead to live cells was used to normalize, and data was imported, analyzed, and fit using Genedata Screener (Basel, Switzerland) software. Data was normalized using percent of control, no tet (100% viability), and 50 ng/mL tet treated (0% viability),and fit using Smart Fit. The reagents, methods, and complete protocol for the MultiTox assay are described below.
Human embryonic kidney (HEK293) cell lines containing a tet-inducible expression system (T-REx™; Invitrogen, Carlsbad, CA) and Adeno-associated virus site 1 pAAVS1-Puro-APOL1 G0 or pAAVS1-Puro-APOL1 G1 or pAAVS1-Puro-APOL1 G2 Clones G0 DC2.13, G1 DC3.25, and G2 DC4.44 were grown in a T-225 flask at ˜90% confluency in cell growth media (DMEM, 10% Tet-free FBS, 2 mM L-glutamine, 100 Units/mL penicillin-streptomycin, 5 μg/mL blasticidin S HCl, 1 μg/mL puromycin dihydrochloride). Cells were washed with DPBS and then trypsinized to dissociate from the flask. Media was used to quench the trypsin, cells were then pelleted at 200 g and resuspended in fresh cell assay media (DMEM, 2% Tet-free FBS, 2 mM L-glutamine, 100 Units/mL penicillin-streptomycin). Cells were counted and diluted to 1.17×10^6 cells/mL. 20 μL of cells (23,400/well) were dispensed in every well of a 384-well Poly-D-Lysine coated plate using the Multidrop dispenser. The plates were then incubated at room temperature for one hour.
Tetracycline is needed to induce APOL1 expression. 1 mg/mL tet stock in water was diluted to 250 ng/mL (5×) in cell assay media. 60 μL of cell assay media (no tet control) was dispensed in columns 1 and 24, and 60 μL of 5×tet in 384-PP-round bottom plate was dispensed in columns 2 to 23 with the Multidrop dispenser.
Assay ready plates from the Global Compound Archive were ordered using template 384_APOL1Cell_DR10n2_50 uM_v3. Compounds were dispensed at 200 nL in DMSO. The final top concentration was 10 μM with a 10 point 3-fold dilution in duplicate in the MultiTox assay.
20 μL was transferred from the 5×tet plate to the ARP and mixed, then 5 μL of 5×tet and the compounds were transferred to the cell plate and mixed using the Bravo. The cell plate was placed in the humidified 37° C. 5% CO2 incubator for 24 hours.
The MultiTox-Fluor Multiplex Cytotoxicity Assay was performed in accordance with the manufacturer's protocol. After cells were incubated with tet and compound for 24 hours, 25 μL of 1×MultiTox reagent was added to each well using the Multidrop dispenser; the plates were placed on a plate shaker (600 rpm) for 2 minutes, then centrifuged briefly and placed back in the 37° C. incubator for 30 minutes. […]
For `Cn1cc([C@@H]2C[C@]3(CCN2)OCCc2cc(Cl)sc23)nn1` (single isomer, unassigned) [Compound 2], the IC50 lay within 100 to 500 nM. Then `Cc1cc([C@@H]2C[C@]3(CCN2)OCCc2cc(Cl)sc23)no1` (single isomer, unassigned) [Compound 23], with 100 to 500 nM. Turning to `Cn1cc([C@@H]2C[C@]3(CCN2)OCCc2cc(Cl)sc23)cn1` (single isomer, unassigned) [Compound 24], the IC50 is less than 100 nM. Then `Cc1cc([C@@H]2C[C@]3(CCN2)OCCc2cc(Cl)sc23)on1` (single isomer, unassigned) [Compound 25], with 100 to 500 nM.

As to `CCc1cc2c(s1)CCOC21CCNC(C2CC2)C1` (single isomer, unassigned) [Compound 29, 2′-cyclopropyl-2-ethyl-spiro[6,7-dihydrothieno[3,2-c]pyran-4,4′-piperidine]], the IC50 was in the range of 500 to 1000 nM. For the compound `Cn1cc([C@@H]2C[C@]3(CCN2)OCCc2cc(C4CC4)sc23)nn1` (single isomer, unassigned) [Compound 31], the IC50 fell in the range of 100 to 500 nM. The same measure for `Cc1cc2c(s1)C1(CCN[C@H](c3cn(C)nn3)C1)OCC2` (single isomer, unassigned) [Compound 32]: 100 to 500 nM; for `Cn1cc([C@@H]2C[C@]3(CCN2)OCC(C)(O)c2cc(Cl)sc23)nn1` (single isomer, unassigned) [Compound 37]: 500 to 1000 nM; for `Cn1cc([C@@H]2C[C@]3(CCN2)OCC(C)(O)c2cc(Cl)sc23)nn1` (single isomer, unassigned) [Compound 38]: 100 to 500 nM.

Turning to `Cn1cc([C@@H]2C[C@]3(CCN2)OCC(O)(C(F)F)c2cc(Cl)sc23)nn1` (single isomer, unassigned) [Compound 39], the IC50 was in the range of 500 to 1000 nM. With `Cn1cc([C@@H]2C[C@]3(CCN2)OCC(O)(C(F)F)c2cc(Cl)sc23)nn1` (single isomer, unassigned) [Compound 40], the IC50 was less than 100 nM. With `COC1CO[C@]2(CCN[C@H](c3cn(C)nn3)C2)c2sc(Cl)cc21` (single isomer, unassigned) [Compound 42], the IC50 was 500 to 1000 nM. For `Cn1cc(C2CC3(CCN2)OCC(O)c2cc(Br)sc23)nn1` (single isomer, unassigned) [Compound 44, 2-bromo-2′-(1-methyltriazol-4-yl)spiro[4,5-dihydrothieno[2,3-c]pyran-7,4′-piperidine]-4-ol], the IC50 lay in the range of 500 to 1000 nM.

As to `Cn1cc(C2CC3(CCN2)OCC(O)c2cc(Br)sc23)nn1` (single isomer, unassigned) [Compound 45, 2-bromo-2′-(1-methyltriazol-4-yl)spiro[4,5-dihydrothieno[2,3-c]pyran-7,4′-piperidine]-4-ol], the IC50 was less than 100 nM. As for `CC(O)c1c(C(F)(F)F)sc2c1CCOC21CCN[C@H](c2cn(C)nn2)C1` (single isomer, unassigned) [Compound 52], the IC50 lay within 100 to 500 nM.

Regarding `CC(O)c1c(C(F)(F)F)sc2c1CCOC21CCN[C@H](c2cn(C)nn2)C1` (single isomer, unassigned) [Compound 53], the IC50 was less than 100 nM. The same measure for `CCc1cc2c(s1)CCOC21CCNC(c2ccc(F)cc2)C1` (single isomer, unassigned) [Compound 78, 2-ethyl-2′-(4-fluorophenyl)spiro[6,7-dihydrothieno[3,2-c]pyran-4,4′-piperidine]]: 500 to 1000 nM; for `Cc1ncc(C2CC3(CCN2)OCCc2cc(Cl)sc23)cn1` (centres unmarked) [Compound 1, 2-chloro-2′-(2-methylpyrimidin-5-yl)spiro[4,5-dihydrothieno[2,3-c]pyran-7,4′-piperidine]]: 100 to 500 nM; for `CCc1cc2c(s1)CCOC21CCNC(C2CC2)C1` (centres unmarked) [Compound 3, 2′-cyclopropyl-2-ethyl-spiro[6,7-dihydrothieno[3,2-c]pyran-4,4′-piperidine]]: 100 to 500 nM. Consider `CCc1cc2c(s1)C1(CCNC(c3cn(C)nn3)C1)OCC2` (centres unmarked) [Compound 4], for which the IC50 lay in the range of 100 to 500 nM. As for `Cn1cc(C2CC3(CCN2)OCCc2cc(C(F)(F)F)sc23)nn1` (centres unmarked) [Compound 5], the IC50 was less than 100 nM. As for `CCc1cc2c(s1)C1(CCNC(c3cc(C)no3)C1)OCC2` (centres unmarked) [Compound 6], the IC50 is less than 100 nM. For `CCc1cc2c(s1)CCOC21CCNC(c2cnn(CCS(C)(=O)=O)c2)C1` (centres unmarked) [Compound 7], the IC50 lay in the range of 100 to 500 nM. Then `CCc1cc2c(s1)C(C)COC21CCNC(c2cn(C)nn2)C1` (centres unmarked) [Compound 9], with 100 to 500 nM; and `CCc1cc2c(s1)CCOC21CCNC(c2cn(C)nn2)C1` (centres unmarked) [Compound 10], with 100 to 500 nM. Then `Cn1cc(C2CC3(CCN2)OCCc2sc(Cl)cc23)nn1` (centres unmarked) [Compound 11], with 500 to 1000 nM; and `Cn1cnc(C2CC3(CCN2)OCCc2cc(Cl)sc23)c1` (centres unmarked) [Compound 12], with 500 to 1000 nM; and `CCc1cc2c(s1)CCOC21CCNC(c2cn[nH]c2)C1` (centres unmarked) [Compound 13], with 500 to 1000 nM. `OCCn1cc(C2CC3(CCN2)OCCc2cc(Cl)sc23)cn1` (centres unmarked) [Compound 14]: the IC50 was in the range of 500 to 1000 nM.

With `CCc1cc2c(s1)CCOC21CCNC(c2ccnnc2)C1` (centres unmarked) [Compound 15], the IC50 was 500 to 1000 nM. In the case of `CCc1cc2c(s1)CCOC21CCNC(C2(C)COC2)C1` (centres unmarked) [Compound 16], the IC50 was 500 to 1000 nM.

As to `Cn1ncc(C2CC3(CCN2)OCCc2cc(Cl)sc23)n1` (centres unmarked) [Compound 17], the IC50 is 500 to 1000 nM. Turning to `CCc1cc2c(s1)CCOC21CCNC(c2cnc(C)nc2)C1` (centres unmarked) [Compound 18], the IC50 lay within 500 to 1000 nM.

Regarding `Clc1cc2c(s1)C1(CCNC(C3CC3)C1)OCC2` (centres unmarked) [Compound 19], the IC50 lay in the range of 500 to 1000 nM. For `Cc1cc2c(s1)CCOC21CCNC(C2CC2)C1` (centres unmarked) [Compound 20], the IC50 fell in the range of 500 to 1000 nM.

As to `FC(F)(F)c1cc2c(s1)CCOC21CCNC(C2CC2)C1` (centres unmarked) [Compound 21], the IC50 was in the range of 100 to 500 nM. On to `Cn1cc([C@@H]2C[C@]3(CCN2)OCCc2cc(Br)sc23)nn1` [Compound 22], for which the IC50 was less than 100 nM. On to `Clc1cc2c(s1)[C@@]1(CCN[C@H](c3cn[nH]c3)C1)OCC2` [Compound 26], for which the IC50 is less than 100 nM. Turning to `CC1CO[C@]2(CCN[C@H](c3cn(C)nn3)C2)c2cc(Cl)sc21` (some centres unmarked) [Compound 28], the IC50 was 100 to 500 nM. The same measure for `Cn1cc([C@@H]2CC3(CCN2)OCCc2cc(C4CC4)sc23)nn1` (stereo partly drawn) [Compound 30, (2S)-2′-cyclopropyl-2-(1-methyl-1H-1,2,3-triazol-4-yl)-4′,5′-dihydrospiro[piperidine-4,7′-thieno[2,3-c]pyran]]: 500 to 1000 nM; for `Cn1cc([C@@H]2C[C@]3(CCN2)OCCc2cc(I)sc23)nn1` [Compound 33, (2S,4S)-2′-iodo-2-(1-methyl-1H-1,2,3-triazol-4-yl)-4′,5′-dihydrospiro[piperidine-4,7′-thieno[2,3-c]pyran]]: less than 100 nM.
